In PubChem BioAssay (NCI):
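Protocol summary: plate cells (96-well), add compound at 5 concentrations, incubate 48 h, interpolate endpoints linearly. At the TGI there is no net growth.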

Tests used:
Assay in all cases: inhibition of tumour cell growth, NCI panel, 48 h
NCI-H460 lung = tested on: NCI-H460 lung
NCI-H226 lung = tested on: NCI-H226 lung
SNB-19 CNS = tested on: SNB-19 CNS
OVCAR-4 ovarian = tested on: OVCAR-4 ovarian
RXF 393 renal = tested on: RXF 393 renal
NCI/ADR-RES ovarian = tested on: NCI/ADR-RES ovarian
MOLT-4 leukemia = tested on: MOLT-4 leukemia
786-0 renal = tested on: 786-0 renal
MCF7 breast = tested on: MCF7 breast
HOP-62 NSCLC = tested on: HOP-62 NSCLC
A549 NSCLC = tested on: A549 NSCLC
PC-3 prostate = tested on: PC-3 prostate
RPMI-8226 leukemia = tested on: RPMI-8226 leukemia
LOX IMVI melanoma = tested on: LOX IMVI melanoma
HCT-15 colon = tested on: HCT-15 colon
BT-549 breast = tested on: BT-549 breast
K-562 leukemia = tested on: K-562 leukemia
SK-MEL-5 melanoma = tested on: SK-MEL-5 melanoma
EKVX NSCLC = tested on: EKVX NSCLC
ACHN renal = tested on: ACHN renal
SN12C renal = tested on: SN12C renal
SW-620 colon = tested on: SW-620 colon
MDA-MB-435 = tested on: MDA-MB-435
DU-145 prostate = tested on: DU-145 prostate
IGROV1 ovarian = tested on: IGROV1 ovarian
HS 578T breast = tested on: HS 578T breast
HOP-92 NSCLC = tested on: HOP-92 NSCLC
SF-295 CNS = tested on: SF-295 CNS
NCI-H23 lung = tested on: NCI-H23 lung
HCT-116 colon = tested on: HCT-116 colon
CCRF-CEM leukemia = tested on: CCRF-CEM leukemia
UACC-257 melanoma = tested on: UACC-257 melanoma
TK-10 renal = tested on: TK-10 renal
A498 renal = tested on: A498 renal
UO-31 renal = tested on: UO-31 renal
M14 melanoma = tested on: M14 melanoma
SK-MEL-2 melanoma = tested on: SK-MEL-2 melanoma
OVCAR-8 ovarian = tested on: OVCAR-8 ovarian
HL-60(TB) leukemia = tested on: HL-60(TB) leukemia
T-47D breast = tested on: T-47D breast
MDA-MB-231 breast = tested on: MDA-MB-231 breast
OVCAR-3 ovarian = tested on: OVCAR-3 ovarian
UACC-62 melanoma = tested on: UACC-62 melanoma
HCC-2998 colon = tested on: HCC-2998 colon
U251 CNS = tested on: U251 CNS
SK-OV-3 ovarian = tested on: SK-OV-3 ovarian
SF-268 CNS = tested on: SF-268 CNS
SF-539 CNS = tested on: SF-539 CNS
KM12 colon = tested on: KM12 colon
COLO 205 colon = tested on: COLO 205 colon
CAKI-1 renal = tested on: CAKI-1 renal
OVCAR-5 ovarian = tested on: OVCAR-5 ovarian
SR leukemia = tested on: SR leukemia
HT29 colon = tested on: HT29 colon
MDA-N = tested on: MDA-N
SNB-75 CNS = tested on: SNB-75 CNS

Measured: TGI

Cn1c(-c2ccccc2)cc(-c2cccs2)c1-c1ccsc1
> 100 µM: all assays above
